# Experimental data reported in ChEMBL document CHEMBL3885881, “DrugMatrix”.
# Species: Rattus norvegicus
# Assay: DrugMatrix - Regimen: Daily Repeat
# Assay type: toxicity, organism-based, Sprague-Dawley
# Design: regimen Daily Repeat, gender Male, age 6-8 weeks
# Conditions: in vivo, iv, vehicle 100 % SALINE; for ABSOLUTE BASOPHIL / ABSOLUTE EOSINOPHIL / ABSOLUTE LYMPHOCYTE / ABSOLUTE MONOCYTE / ABSOLUTE SEGMENTED NEUTROPHIL / BASOPHIL / EOSINOPHIL / ERYTHROCYTE COUNT / HEMATOCRIT / HEMOGLOBIN / LEUKOCYTE COUNT / LYMPHOCYTE / MEAN CORPUSCULAR HEMOGLOBIN / MEAN CORPUSCULAR HEMOGLOBIN CONCENTRATION / MEAN CORPUSCULAR VOLUME / MONOCYTE / NEUTROPHIL / NUCLEATED RED BLOOD CELLS / PLATELET COUNT: tissue Blood; for ALANINE AMINOTRANSFERASE / ALBUMIN / ALKALINE PHOSPHATASE / ASPARTATE AMINOTRANSFERASE / BLOOD UREA NITROGEN / CARBON DIOXIDE / CHLORIDE / CHOLESTEROL / CREATINE PHOSPHOKINASE / CREATININE / GLUCOSE / LACTATE DEHYDROGENASE / LIPASE / PHOSPHORUS / POTASSIUM / SODIUM / TOTAL BILIRUBIN / TOTAL PROTEIN / URIC ACID: tissue Plasma
# [1] = 7 mg/kg, 120 h, dose level Low, time 5 day
# [2] = 41 mg/kg, 72 h, dose level High, time 3 day
# [3] = 41 mg/kg, 120 h, dose level High, time 5 day
structure (smiles),measurement,setting,value
CC(=O)N[C@@H]1[C@H](Oc2c3cc4cc2Oc2ccc(cc2Cl)[C@@H](O[C@@H]2O[C@@H](CO)[C@@H](O)[C@H](O)[C@@H]2NC(C)=O)[C@@H]2NC(=O)[C@H](NC(=O)[C@@H]4NC(=O)[C@H]4NC(=O)[C@@H](Cc5ccc(c(Cl)c5)O3)NC(=O)[C@H](N)c3ccc(O)c(c3)Oc3cc(O)cc4c3)c3ccc(O)c(c3)-c3c(O[C@H]4O[C@H](CO)[C@@H](O)[C@@H](O)[C@@H]4O)cc(O)cc3[C@@H](C(=O)O)NC2=O)O[C@@H](CO)[C@@H](O)[C@@H]1O,ABSOLUTE BASOPHIL,[1],0 CELLS/uL
same,ABSOLUTE EOSINOPHIL,[1],166 CELLS/uL
same,ABSOLUTE LYMPHOCYTE,[1],15568 CELLS/uL
same,ABSOLUTE MONOCYTE,[1],230.67 CELLS/uL
same,ABSOLUTE SEGMENTED NEUTROPHIL,[1],1568.67 CELLS/uL
same,BASOPHIL,[1],0%
same,EOSINOPHIL,[1],1%
same,ERYTHROCYTE COUNT,[1],5.77 x10E6/uL
same,HEMATOCRIT,[1],36.27%
same,HEMOGLOBIN,[1],13.63 G/DL
same,LEUKOCYTE COUNT,[1],17.53 x10E3/uL
same,LYMPHOCYTE,[1],88.67%
same,MEAN CORPUSCULAR HEMOGLOBIN,[1],23.67 pg
same,MEAN CORPUSCULAR HEMOGLOBIN CONCENTRATION,[1],37.57 G/DL
same,MEAN CORPUSCULAR VOLUME,[1],62.97 fL
same,MONOCYTE,[1],1.33%
same,NEUTROPHIL,[1],9%
same,NUCLEATED RED BLOOD CELLS,[1],0 /100WBC
same,PLATELET COUNT,[1],1190.67 x10E3/uL
same,ALANINE AMINOTRANSFERASE,[1],40.67 u/L
same,ALBUMIN,[1],4.23 G/DL
same,ALKALINE PHOSPHATASE,[1],395 u/L
same,ASPARTATE AMINOTRANSFERASE,[1],84.33 u/L
same,BLOOD UREA NITROGEN,[1],19.33 mg/dL
same,CARBON DIOXIDE,[1],24 mmol/L
same,CHLORIDE,[1],106.67 MEQ/L
same,CHOLESTEROL,[1],59.33 mg/dL
same,CREATINE PHOSPHOKINASE,[1],389.67 u/L
same,CREATININE,[1],0.18 mg/dL
same,GLUCOSE,[1],149 mg/dL
same,LACTATE DEHYDROGENASE,[1],466.67 u/L
same,LIPASE,[1],8.33 u/L
same,PHOSPHORUS,[1],11.47 mg/dL
same,POTASSIUM,[1],5.99 MEQ/L
same,SODIUM,[1],144.47 MEQ/L
same,TOTAL BILIRUBIN,[1],0.2 mg/dL
same,TOTAL PROTEIN,[1],6.03 G/DL
same,URIC ACID,[1],1.17 mg/dL
same,ABSOLUTE BASOPHIL,[2],0 CELLS/uL
same,ABSOLUTE EOSINOPHIL,[2],126.67 CELLS/uL
same,ABSOLUTE LYMPHOCYTE,[2],16661.33 CELLS/uL
same,ABSOLUTE MONOCYTE,[2],515.67 CELLS/uL
same,ABSOLUTE SEGMENTED NEUTROPHIL,[2],1929.67 CELLS/uL
same,BASOPHIL,[2],0%
same,EOSINOPHIL,[2],0.67%
same,ERYTHROCYTE COUNT,[2],5.53 x10E6/uL
same,HEMATOCRIT,[2],35.03%
same,HEMOGLOBIN,[2],13.17 G/DL
same,LEUKOCYTE COUNT,[2],19.23 x10E3/uL
same,LYMPHOCYTE,[2],86.67%
same,MEAN CORPUSCULAR HEMOGLOBIN,[2],23.83 pg
same,MEAN CORPUSCULAR HEMOGLOBIN CONCENTRATION,[2],37.6 G/DL
same,MEAN CORPUSCULAR VOLUME,[2],63.4 fL
same,MONOCYTE,[2],2.67%
same,NEUTROPHIL,[2],10%
same,NUCLEATED RED BLOOD CELLS,[2],0 /100WBC
same,PLATELET COUNT,[2],1404 x10E3/uL
same,ALANINE AMINOTRANSFERASE,[2],41.67 u/L
same,ALBUMIN,[2],4.13 G/DL
same,ALKALINE PHOSPHATASE,[2],271.33 u/L
same,ASPARTATE AMINOTRANSFERASE,[2],67.33 u/L
same,BLOOD UREA NITROGEN,[2],18.33 mg/dL
same,CARBON DIOXIDE,[2],27 mmol/L
same,CHLORIDE,[2],102 MEQ/L
same,CHOLESTEROL,[2],61.67 mg/dL
same,CREATINE PHOSPHOKINASE,[2],181 u/L
same,CREATININE,[2],0.21 mg/dL
same,GLUCOSE,[2],153.67 mg/dL
same,LACTATE DEHYDROGENASE,[2],125.67 u/L
same,LIPASE,[2],8.33 u/L
same,PHOSPHORUS,[2],11.33 mg/dL
same,POTASSIUM,[2],6.69 MEQ/L
same,SODIUM,[2],143.47 MEQ/L
same,TOTAL BILIRUBIN,[2],0.2 mg/dL
same,TOTAL PROTEIN,[2],5.87 G/DL
same,URIC ACID,[2],1.37 mg/dL
same,ABSOLUTE BASOPHIL,[3],0 CELLS/uL
same,ABSOLUTE EOSINOPHIL,[3],0 CELLS/uL
same,ABSOLUTE LYMPHOCYTE,[3],12482 CELLS/uL
same,ABSOLUTE MONOCYTE,[3],440.67 CELLS/uL
same,ABSOLUTE SEGMENTED NEUTROPHIL,[3],1610.67 CELLS/uL
same,BASOPHIL,[3],0%
same,EOSINOPHIL,[3],0%
same,ERYTHROCYTE COUNT,[3],5.88 x10E6/uL
same,HEMATOCRIT,[3],36.7%
same,HEMOGLOBIN,[3],13.8 G/DL
same,LEUKOCYTE COUNT,[3],14.53 x10E3/uL
same,LYMPHOCYTE,[3],86%
same,MEAN CORPUSCULAR HEMOGLOBIN,[3],23.47 pg
same,MEAN CORPUSCULAR HEMOGLOBIN CONCENTRATION,[3],37.6 G/DL
same,MEAN CORPUSCULAR VOLUME,[3],62.47 fL
same,MONOCYTE,[3],3%
same,NEUTROPHIL,[3],11%
same,NUCLEATED RED BLOOD CELLS,[3],0 /100WBC
same,PLATELET COUNT,[3],1300.33 x10E3/uL
same,ALANINE AMINOTRANSFERASE,[3],57.67 u/L
same,ALBUMIN,[3],4.3 G/DL
same,ALKALINE PHOSPHATASE,[3],395 u/L
same,ASPARTATE AMINOTRANSFERASE,[3],79.33 u/L
same,BLOOD UREA NITROGEN,[3],18.67 mg/dL
same,CARBON DIOXIDE,[3],29.67 mmol/L
same,CHLORIDE,[3],102.33 MEQ/L
same,CHOLESTEROL,[3],69.67 mg/dL
same,CREATINE PHOSPHOKINASE,[3],275 u/L
same,CREATININE,[3],0.19 mg/dL
same,GLUCOSE,[3],177 mg/dL
same,LACTATE DEHYDROGENASE,[3],229 u/L
same,LIPASE,[3],9 u/L
same,PHOSPHORUS,[3],13.2 mg/dL
same,POTASSIUM,[3],6.79 MEQ/L
same,SODIUM,[3],148.17 MEQ/L
same,TOTAL BILIRUBIN,[3],0.17 mg/dL
same,TOTAL PROTEIN,[3],6.3 G/DL
same,URIC ACID,[3],1.83 mg/dL
